Earlier results, collected in PMC7018972, “Novel and selective inactivators of Triosephosphate isomerase with anti-trematode activity” (Scientific Reports, 2020).

Tested on: Echinococcus granulosus protoscolex
Design: method as in PMID 22536349
Details: 48 h, fixed dose of 20 µM; cited from earlier work

Cc1ccc(-c2nsc(S(=O)(=O)c3ccc(C)cc3)n2)cc1 [Compound 187]
effect on Echinococcus granulosus protoscolex in words: showed effect
